Test results taken from patent publication US11491120B2, “Pharmacological prophylactics against stress-induced affective disorders in females” (The Trustees of Columbia University in the City of New York, priority 2017, dated 2022).

System: female 129S6/SvEv mice
Test: Forced swim test (FST), immobility time, after stress
Conditions: 1 week prophylactic drug
[1] = Forced Swim Test Day 1, Dunnett test Sal vs. drug (0.025)
[2] = Forced Swim Test Day 1, Dunnett test Sal vs. drug (0.075)
[3] = Forced Swim Test Day 1, Dunnett test Sal vs. drug (0.1)
[4] = Forced Swim Test Day 1, Dunnett test Sal vs. drug (0.3)

N[C@]1(c2ccccc2Cl)CCC[C@H](O)C1=O [(2S,6S)-HNK]
p, Sal vs. drug, Dunnett test: Immobility Time (min 1), Forced Swim Test Day 2 (0.025 mg/kg): 0.9954 | p, Sal vs. drug, Dunnett test: Immobility Time (min 1-6), Forced Swim Test Day 2 (0.025 mg/kg): 0.9996 | p, Sal vs. drug, Dunnett test: Immobility Time (min 2), Forced Swim Test Day 2 (0.025 mg/kg): 0.9993 | p, Sal vs. drug, Dunnett test: Immobility Time (min 4), Forced Swim Test Day 2 (0.025 mg/kg): 0.9518 | p, Sal vs. drug, Dunnett test: Immobility Time (min 5), Forced Swim Test Day 2 (0.025 mg/kg): 0.9885 | p, Sal vs. drug, Dunnett test: Immobility Time (min 6), Forced Swim Test Day 2 (0.025 mg/kg): >0.9999 | p, Sal vs. drug, Dunnett test: Immobility Time Average (min 3-6), Forced Swim Test Day 2 (0.025 mg/kg): 0.9999 | * (significance), Sal vs. drug, Dunnett test: Immobility Time (min 1-6), Forced Swim Test Day 2 (0.075 mg/kg): ** (** p<0.01) | * (significance), Sal vs. drug, Dunnett test: Immobility Time (min 5), Forced Swim Test Day 2 (0.075 mg/kg): *** (*** p<0.0001) | * (significance), Sal vs. drug, Dunnett test: Immobility Time (min 6), Forced Swim Test Day 2 (0.075 mg/kg): ** (** p<0.01) | p, Sal vs. drug, Dunnett test: Immobility Time (min 1), Forced Swim Test Day 2 (0.075 mg/kg): 0.9993 | p, Sal vs. drug, Dunnett test: Immobility Time (min 1-6), Forced Swim Test Day 2 (0.075 mg/kg): 0.0025 | p, Sal vs. drug, Dunnett test: Immobility Time (min 2), Forced Swim Test Day 2 (0.075 mg/kg): 0.9998 | p, Sal vs. drug, Dunnett test: Immobility Time (min 4), Forced Swim Test Day 2 (0.075 mg/kg): 0.3169 | p, Sal vs. drug, Dunnett test: Immobility Time (min 5), Forced Swim Test Day 2 (0.075 mg/kg): <0.0001 | p, Sal vs. drug, Dunnett test: Immobility Time (min 6), Forced Swim Test Day 2 (0.075 mg/kg): 0.0013 | p, Sal vs. drug, Dunnett test: Immobility Time Average (min 3-6), Forced Swim Test Day 2 (0.075 mg/kg): 0.9990 | * (significance), Sal vs. drug, Dunnett test: Immobility Time (min 1), Forced Swim Test Day 2 (0.1 mg/kg): * (* p<0.05) | p, Sal vs. drug, Dunnett test: Immobility Time (min 1), Forced Swim Test Day 2 (0.1 mg/kg): 0.0291 | p, Sal vs. drug, Dunnett test: Immobility Time (min 1-6), Forced Swim Test Day 2 (0.1 mg/kg): 0.2191 | p, Sal vs. drug, Dunnett test: Immobility Time (min 2), Forced Swim Test Day 2 (0.1 mg/kg): 0.4741 | p, Sal vs. drug, Dunnett test: Immobility Time (min 4), Forced Swim Test Day 2 (0.1 mg/kg): 0.9995 | p, Sal vs. drug, Dunnett test: Immobility Time (min 5), Forced Swim Test Day 2 (0.1 mg/kg): 0.9990 | p, Sal vs. drug, Dunnett test: Immobility Time (min 6), Forced Swim Test Day 2 (0.1 mg/kg): 0.9952 | p, Sal vs. drug, Dunnett test: Immobility Time Average (min 3-6), Forced Swim Test Day 2 (0.1 mg/kg): 0.9623 | p, Sal vs. drug, Dunnett test: Immobility Time (min 1), Forced Swim Test Day 2 (0.3 mg/kg): 0.2627 | p, Sal vs. drug, Dunnett test: Immobility Time (min 1-6), Forced Swim Test Day 2 (0.3 mg/kg): 0.9993 | p, Sal vs. drug, Dunnett test: Immobility Time (min 2), Forced Swim Test Day 2 (0.3 mg/kg): 0.7509 | p, Sal vs. drug, Dunnett test: Immobility Time (min 4), Forced Swim Test Day 2 (0.3 mg/kg): 0.9997 | p, Sal vs. drug, Dunnett test: Immobility Time (min 5), Forced Swim Test Day 2 (0.3 mg/kg): 0.9882 | p, Sal vs. drug, Dunnett test: Immobility Time (min 6), Forced Swim Test Day 2 (0.3 mg/kg): 0.4546 | p, Sal vs. drug, Dunnett test: Immobility Time Average (min 3-6), Forced Swim Test Day 2 (0.3 mg/kg): 0.9999 | p, Sal vs. drug, Dunnett test: Immobility Time (min 1), Forced Swim Test Day 2 (2.5 mg/kg): 0.9998 | p, Sal vs. drug, Dunnett test: Immobility Time (min 1-6), Forced Swim Test Day 2 (2.5 mg/kg): 0.5400 | p, Sal vs. drug, Dunnett test: Immobility Time (min 2), Forced Swim Test Day 2 (2.5 mg/kg): >0.9999 | p, Sal vs. drug, Dunnett test: Immobility Time (min 4), Forced Swim Test Day 2 (2.5 mg/kg): 0.8764 | p, Sal vs. drug, Dunnett test: Immobility Time (min 5), Forced Swim Test Day 2 (2.5 mg/kg): 0.6601 | p, Sal vs. drug, Dunnett test: Immobility Time (min 6), Forced Swim Test Day 2 (2.5 mg/kg): 0.9992 | p, Sal vs. drug, Dunnett test: Immobility Time Average (min 3-6), Forced Swim Test Day 2 (2.5 mg/kg): 0.9957 | p, Sal vs. drug, Dunnett test: Immobility Time (min 1), Forced Swim Test Day 2 (10 mg/kg): 0.6616 | p, Sal vs. drug, Dunnett test: Immobility Time (min 1-6), Forced Swim Test Day 2 (10 mg/kg): >0.9999 | p, Sal vs. drug, Dunnett test: Immobility Time (min 2), Forced Swim Test Day 2 (10 mg/kg): 0.9991 | p, Sal vs. drug, Dunnett test: Immobility Time (min 4), Forced Swim Test Day 2 (10 mg/kg): 0.9999 | p, Sal vs. drug, Dunnett test: Immobility Time (min 5), Forced Swim Test Day 2 (10 mg/kg): 0.9877 | p, Sal vs. drug, Dunnett test: Immobility Time (min 6), Forced Swim Test Day 2 (10 mg/kg): 0.9994 | p, Sal vs. drug, Dunnett test: Immobility Time Average (min 3-6), Forced Swim Test Day 2 (10 mg/kg): 0.9999 | * (significance), Immobility Time (min 1) [1]: ** (** p<0.01) | p, Immobility Time (min 1) [1]: 0.0031 | p, Immobility Time (min 1-6) [1]: 0.8484 | p, Immobility Time (min 3) [1]: 0.9997 | p, Immobility Time (min 4) [1]: >0.9999 | p, Immobility Time (min 5) [1]: >0.9999 | p, Immobility Time (min 6) [1]: 0.9993 | p, Immobility Time Average (min 3-6) [1]: 0.9997 | p, Immobility Time (min 1) [2]: 0.0820 | p, Immobility Time (min 1-6) [2]: 0.0650 | p, Immobility Time (min 3) [2]: 0.9489 | p, Immobility Time (min 4) [2]: 0.9482 | p, Immobility Time (min 5) [2]: 0.9436 | p, Immobility Time (min 6) [2]: 0.6982 | p, Immobility Time Average (min 3-6) [2]: 0.7901 | * (significance), Immobility Time (min 1) [3]: *** (*** p<0.0001) | p, Immobility Time (min 1) [3]: <0.0001 | p, Immobility Time (min 1-6) [3]: 0.5664 | p, Immobility Time (min 3) [3]: 0.9993 | p, Immobility Time (min 4) [3]: 0.9993 | p, Immobility Time (min 5) [3]: 0.9869 | p, Immobility Time (min 6) [3]: >0.9999 | p, Immobility Time Average (min 3-6) [3]: 0.9992 | * (significance), Immobility Time (min 1) [4]: * (* p<0.05) | * (significance), Immobility Time (min 1-6) [4]: * (* p<0.05) | p, Immobility Time (min 1) [4]: 0.0277 | p, Immobility Time (min 1-6) [4]: 0.0361 | p, Immobility Time (min 3) [4]: 0.4573 | p, Immobility Time (min 4) [4]: 0.8163 | p, Immobility Time (min 5) [4]: 0.9482 | p, Immobility Time (min 6) [4]: 0.6194
